# Laboratory results as given in ChEMBL document CHEMBL5042530, “Discovery of Novel Pyridine-Dimethyl-Phenyl-DAPY Hybrids by Molecular Fusing of Methyl-Pyrimidine-DAPYs and Difluoro-Pyridinyl-DAPYs: Improving the Druggability toward High Inhibitory Activity, Solubility, Safety, and PK” (J Med Chem, 2022).
# Legend:
# [1] = Acute toxicity in fasted female mouse assessed as pathological changes in brain at 2 g/Kg, IG administered as single dose measured after 14 days by HE staining based assay; type: tissue-based; details: in vivo, po, 2000 mg/kg, 336 h, time 14 day
# [2] = Acute toxicity in fasted female mouse assessed as pathological changes in spleen at 2 g/Kg, IG administered as single dose measured after 14 days by HE staining based assay; type: tissue-based; details: in vivo, po, 2000 mg/kg, 336 h, time 14 day
# [3] = Inhibition of CYP3A4T in human liver microsomes using testosterone as substrate incubated for 15 to 45 mins in presence of NADPH; type: ADME
# [4] = Acute toxicity in fasted male mouse assessed as abnormal behavior at 2 g/Kg, IG administered as single dose measured every day for 14 days; details: in vivo, po, 2000 mg/kg, 336 h, time 14 day
# Cytochrome P450 2D6 = Cytochrome P450 2D6 (Homo sapiens, UniProt P10635); experiment: Inhibition of CYP2D6 in human liver microsomes using dextromethorphan as substrate incubated for 15 to 45 mins in presence of NADPH; type: ADME
# Sequence of Cytochrome P450 2D6 (P10635 whole entry): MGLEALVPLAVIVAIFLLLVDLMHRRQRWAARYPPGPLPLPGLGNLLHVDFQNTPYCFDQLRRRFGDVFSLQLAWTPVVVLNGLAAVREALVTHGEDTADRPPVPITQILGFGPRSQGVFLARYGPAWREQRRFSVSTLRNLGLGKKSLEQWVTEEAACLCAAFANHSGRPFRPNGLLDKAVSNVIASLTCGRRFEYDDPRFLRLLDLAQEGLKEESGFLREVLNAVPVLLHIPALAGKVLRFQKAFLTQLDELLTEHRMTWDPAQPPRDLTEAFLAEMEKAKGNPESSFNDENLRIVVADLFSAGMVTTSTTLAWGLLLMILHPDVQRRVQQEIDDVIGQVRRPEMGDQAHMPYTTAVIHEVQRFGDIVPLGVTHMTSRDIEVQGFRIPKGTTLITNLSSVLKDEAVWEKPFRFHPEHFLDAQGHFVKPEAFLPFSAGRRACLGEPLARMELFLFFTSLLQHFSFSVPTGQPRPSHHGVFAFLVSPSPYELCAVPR
# [5] = Acute toxicity in fasted female mouse assessed as death at 2 g/Kg, IG administered as single dose measured every day for 14 days; details: in vivo, po, 2000 mg/kg, 336 h, time 14 day
# [6] = Inhibition of CYP3A4M in human liver microsomes using midazolam as substrate incubated for 15 to 45 mins in presence of NADPH; type: ADME
# [7] = Oral bioavailability in Sprague-Dawley rat at 5 mg/kg administered via gavage measured up to 24 hrs by LCMS analysis; type: ADME, organism-based; details: in vivo
# [8] = Tmax in Sprague-Dawley rat at 5 mg/kg, po administered via gavage measured up to 24 hrs by LCMS analysis; type: ADME, organism-based; details: in vivo
# [9] = Acute toxicity in fasted male mouse assessed as death at 2 g/Kg, IG administered as single dose measured every day for 14 days; details: in vivo, po, 2000 mg/kg, 336 h, time 14 day
# [10] = Half life in Sprague-Dawley rat at 1 mg/kg, iv measured up to 24 hrs by LCMS analysis; type: ADME, organism-based; details: in vivo
# [11] = Cmax in Sprague-Dawley rat at 5 mg/kg, po administered via gavage measured up to 24 hrs by LCMS analysis; type: ADME, organism-based; set-up: route oral, dose 5 mg/kg, time <=24; details: in vivo
# [12] = AUC (0 to last) in Sprague-Dawley rat at 1 mg/kg, iv measured up to 24 hrs by LCMS analysis; type: ADME, organism-based; set-up: route intravenous, dose 1 mg/kg, time <=24; details: in vivo
# [13] = MRTinfinity in Sprague-Dawley rat at 5 mg/kg, po administered via gavage measured up to 24 hrs by LCMS analysis; type: ADME, organism-based; details: in vivo
# [14] = Acute toxicity in fasted male mouse assessed as pathological changes in heart at 2 g/Kg, IG administered as single dose measured after 14 days by HE staining based assay; type: tissue-based; details: in vivo, po, 2000 mg/kg, 336 h, time 14 day
# [15] = Acute toxicity in fasted female mouse assessed as abnormal behavior at 2 g/Kg, IG administered as single dose measured every day for 14 days; details: in vivo, po, 2000 mg/kg, 336 h, time 14 day
# Cytochrome P450 2C19 = Cytochrome P450 2C19 (Homo sapiens, UniProt P33261); experiment: Inhibition of CYP2C19 in human liver microsomes using S-mephenytoin as substrate incubated for 15 to 45 mins in presence of NADPH; type: ADME
# Sequence of Cytochrome P450 2C19 (P33261 whole entry): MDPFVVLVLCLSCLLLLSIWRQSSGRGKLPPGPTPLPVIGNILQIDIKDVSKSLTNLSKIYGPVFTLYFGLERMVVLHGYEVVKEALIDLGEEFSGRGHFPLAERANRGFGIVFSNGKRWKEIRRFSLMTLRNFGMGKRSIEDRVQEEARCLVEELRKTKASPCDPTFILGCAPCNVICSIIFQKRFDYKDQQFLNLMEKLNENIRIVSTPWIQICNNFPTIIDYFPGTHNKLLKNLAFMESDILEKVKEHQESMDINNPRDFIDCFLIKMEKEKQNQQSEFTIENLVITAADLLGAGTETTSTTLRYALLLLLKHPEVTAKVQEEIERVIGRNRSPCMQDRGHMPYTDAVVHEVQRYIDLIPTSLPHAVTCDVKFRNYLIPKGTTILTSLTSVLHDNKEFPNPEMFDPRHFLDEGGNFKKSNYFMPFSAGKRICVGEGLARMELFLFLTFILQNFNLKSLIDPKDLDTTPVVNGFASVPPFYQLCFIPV
# [16] = Acute toxicity in fasted male mouse assessed as pathological changes in kidney at 2 g/Kg, IG administered as single dose measured after 14 days by HE staining based assay; type: tissue-based; details: in vivo, po, 2000 mg/kg, 336 h, time 14 day
# [17] = AUCinfinity in Sprague-Dawley rat at 1 mg/kg, iv measured up to 24 hrs by LCMS analysis; type: ADME, organism-based; set-up: route intravenous, dose 1 mg/kg, time <=24; details: in vivo
# Cytochrome P450 1A2 = target: T1, Cytochrome P450 1A2 (Homo sapiens, UniProt P05177); experiment: Inhibition of CYP1A2 in human liver microsomes using phenacetin as substrate incubated for 15 to 45 mins in presence of NADPH; type: ADME
# T1 sequence (P05177 whole entry): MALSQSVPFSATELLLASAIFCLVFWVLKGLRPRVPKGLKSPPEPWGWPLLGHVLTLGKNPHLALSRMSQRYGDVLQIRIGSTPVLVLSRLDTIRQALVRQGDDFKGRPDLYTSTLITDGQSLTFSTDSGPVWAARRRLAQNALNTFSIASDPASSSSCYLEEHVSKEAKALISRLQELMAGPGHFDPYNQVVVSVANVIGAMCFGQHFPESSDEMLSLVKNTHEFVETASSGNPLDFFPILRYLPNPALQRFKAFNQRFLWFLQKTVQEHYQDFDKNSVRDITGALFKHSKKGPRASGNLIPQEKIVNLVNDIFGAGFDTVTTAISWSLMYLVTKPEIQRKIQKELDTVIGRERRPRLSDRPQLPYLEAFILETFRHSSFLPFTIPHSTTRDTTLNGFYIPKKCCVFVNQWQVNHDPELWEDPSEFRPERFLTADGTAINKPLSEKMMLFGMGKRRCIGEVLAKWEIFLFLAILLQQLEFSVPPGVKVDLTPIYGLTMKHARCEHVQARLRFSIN
# [18] = Acute toxicity in fasted male mouse assessed as pathological changes in liver at 2 g/Kg, IG administered as single dose measured after 14 days by HE staining based assay; type: tissue-based; details: in vivo, po, 2000 mg/kg, 336 h, time 14 day
# [19] = Aqueous solubility of the compound in PBS buffer at pH 7.4 measured after 24 hrs by HPLC-UV analysis; type: physicochemical
# [20] = Acute toxicity in fasted female mouse assessed as pathological changes in liver at 2 g/Kg, IG administered as single dose measured after 14 days by HE staining based assay; type: tissue-based; details: in vivo, po, 2000 mg/kg, 336 h, time 14 day
# [21] = Acute toxicity in fasted female mouse assessed as pathological changes in lung at 2 g/Kg, IG administered as single dose measured after 14 days by HE staining based assay; type: tissue-based; details: in vivo, po, 2000 mg/kg, 336 h, time 14 day
# [22] = Acute toxicity in fasted male mouse assessed as pathological changes in spleen at 2 g/Kg, IG administered as single dose measured after 14 days by HE staining based assay; type: tissue-based; details: in vivo, po, 2000 mg/kg, 336 h, time 14 day
# [23] = Acute toxicity in fasted female mouse assessed as pathological changes in heart at 2 g/Kg, IG administered as single dose measured after 14 days by HE staining based assay; type: tissue-based; details: in vivo, po, 2000 mg/kg, 336 h, time 14 day
# [24] = Aqueous solubility of the compound in PBS buffer at pH 2 measured after 24 hrs by HPLC-UV analysis; type: physicochemical
# [25] = Aqueous solubility of the compound in PBS buffer at pH 7 measured after 24 hrs by HPLC-UV analysis; type: physicochemical
# [26] = AUCinfinity in Sprague-Dawley rat at 5 mg/kg, po administered via gavage measured up to 24 hrs by LCMS analysis; type: ADME, organism-based; set-up: route oral, dose 5 mg/kg, time <=24; details: in vivo
# [27] = Acute toxicity in fasted female mouse assessed as increase in body weight at 2 g/Kg, IG administered as single dose measured every day for 14 days; details: in vivo, po, 2000 mg/kg, 336 h, time 14 day
# [28] = Acute toxicity in fasted female mouse assessed as pathological changes in kidney at 2 g/Kg, IG administered as single dose measured after 14 days by HE staining based assay; type: tissue-based; details: in vivo, po, 2000 mg/kg, 336 h, time 14 day
# [29] = AUC (0 to last) in Sprague-Dawley rat at 5 mg/kg, po administered via gavage measured up to 24 hrs by LCMS analysis; type: ADME, organism-based; set-up: route oral, dose 5 mg/kg, time <=24; details: in vivo
# Cytochrome P450 2C9 = Cytochrome P450 2C9 (Homo sapiens, UniProt P11712); experiment: Inhibition of CYP2C9 in human liver microsomes using tolbutamide as substrate incubated for 15 to 45 mins in presence of NADPH
# Sequence of Cytochrome P450 2C9 (P11712 whole entry): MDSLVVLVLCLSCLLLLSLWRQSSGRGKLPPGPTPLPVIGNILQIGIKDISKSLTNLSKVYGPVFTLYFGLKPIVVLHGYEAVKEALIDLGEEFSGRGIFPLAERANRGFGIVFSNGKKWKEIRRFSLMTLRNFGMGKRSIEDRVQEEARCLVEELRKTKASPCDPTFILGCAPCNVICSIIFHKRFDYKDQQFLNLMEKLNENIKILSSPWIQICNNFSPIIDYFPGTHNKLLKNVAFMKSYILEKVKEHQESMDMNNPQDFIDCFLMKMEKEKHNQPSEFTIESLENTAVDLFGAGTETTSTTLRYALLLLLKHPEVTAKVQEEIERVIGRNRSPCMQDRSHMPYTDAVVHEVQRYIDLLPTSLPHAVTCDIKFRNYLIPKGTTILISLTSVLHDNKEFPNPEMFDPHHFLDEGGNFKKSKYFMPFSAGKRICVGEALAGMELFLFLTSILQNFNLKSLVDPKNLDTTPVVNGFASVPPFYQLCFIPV
# [30] = Acute toxicity in fasted male mouse assessed as increase in body weight at 2 g/Kg, IG administered as single dose measured every day for 14 days; details: in vivo, po, 2000 mg/kg, 336 h, time 14 day
# [31] = Acute toxicity in fasted male mouse assessed as pathological changes in lung at 2 g/Kg, IG administered as single dose measured after 14 days by HE staining based assay; type: tissue-based; details: in vivo, po, 2000 mg/kg, 336 h, time 14 day
# [32] = Acute toxicity in fasted male mouse assessed as pathological changes in brain at 2 g/Kg, IG administered as single dose measured after 14 days by HE staining based assay; type: tissue-based; details: in vivo, po, 2000 mg/kg, 336 h, time 14 day
# [33] = Half life in Sprague-Dawley rat at 5 mg/kg, po administered via gavage measured up to 24 hrs by LCMS analysis; type: ADME, organism-based; details: in vivo
# [34] = MRTinfinity in Sprague-Dawley rat at 1 mg/kg, iv measured up to 24 hrs by LCMS analysis; type: ADME, organism-based; details: in vivo
# [35] = Half life in Sprague-Dawley rat at 5 mg/kg, IG measured up to 24 hrs by LCMS analysis; type: ADME, organism-based; details: in vivo, po
# [36] = Metabolic stability in rat liver microsomes assessed as half life at 1 uM presence of NADPH measured up to 60 mins by LC-MS/MS analysis; type: ADME, Microsome
# [37] = Metabolic stability in human liver microsomes assessed as half life at 1 uM presence of NADPH measured up to 60 mins by LC-MS/MS analysis; type: ADME, Microsome
# [38] = Metabolic stability in human liver microsomes assessed as intrinsic clearance at 1 uM presence of NADPH measured up to 60 mins by LC-MS/MS analysis; type: ADME, Microsome; details: read-out: CLH
# [39] = Metabolic stability in mouse liver microsomes assessed as half life at 1 uM presence of NADPH measured up to 60 mins by LC-MS/MS analysis; type: ADME, Microsome
# [40] = Metabolic stability in mouse liver microsomes assessed as intrinsic clearance at 1 uM presence of NADPH measured up to 60 mins by LC-MS/MS analysis; type: ADME, Microsome; details: read-out: CLH
# [41] = Metabolic stability in rat liver microsomes assessed as intrinsic clearance at 1 uM presence of NADPH measured up to 60 mins by LC-MS/MS analysis; type: ADME, Microsome; details: read-out: CLH
compound,measurement,setting,value
Cc1cc(-c2ccncc2)cc(C)c1Nc1ccnc(Nc2ccc(C#N)cc2)n1.Cl,Activity,[1],Non-Toxic
same,Activity,[2],Non-Toxic
same,IC50,[3],20 µM
same,Activity,[4],Non-Toxic
same,IC50,Cytochrome P450 2D6,> 30 µM
same,Activity,[5],Non-Toxic
same,IC50,[6],21 µM
same,bioavailability,[7],59.4%
same,Tmax,[8],60 min
same,Activity,[9],Non-Toxic
same,half-life,[10],21.6 min
same,Cmax,[11],365 ng/mL
same,AUC(0-t) at 24 h,[12],285 ng·h/mL
same,MRT inf,[13],126 min
same,Activity,[14],Non-Toxic
same,Activity,[15],Non-Toxic
same,IC50,Cytochrome P450 2C19,6.8 µM
same,Activity,[16],Non-Toxic
same,AUC(0-inf),[17],290 ng·h/mL
same,IC50,Cytochrome P450 1A2,> 30 µM
same,Activity,[18],Non-Toxic
same,solubility at 24 h,[19],9 µg/mL
same,Activity,[20],Non-Toxic
same,Activity,[21],Non-Toxic
same,Activity,[22],Non-Toxic
same,Activity,[23],Non-Toxic
same,solubility at 24 h,[24],584 µg/mL
same,solubility at 24 h,[25],9.1 µg/mL
same,AUC(0-inf),[26],861 ng·h/mL
same,Activity,[27],Toxic
same,Activity,[28],Non-Toxic
same,AUC(0-t) at 24 h,[29],835 ng·h/mL
same,IC50,Cytochrome P450 2C9,17 µM
same,Activity,[30],Toxic
same,Activity,[31],Non-Toxic
same,Activity,[32],Non-Toxic
same,half-life,[33],132 min
same,MRT inf,[34],28.8 min
N#Cc1ccc(Nc2nccc(Nc3c(F)cc(-c4ccncc4)cc3F)n2)cc1,half-life,[35],50.4 min
Br.Cc1cnc(Nc2ccc(C#N)cc2)nc1Nc1c(F)cc(-c2ccncc2)cc1F,half-life at 1 µM,[36],44 min
same,Activity,[1],Non-Toxic
same,Activity,[2],Non-Toxic
same,IC50,[3],19 µM
same,Activity,[4],Non-Toxic
same,IC50,Cytochrome P450 2D6,7.6 µM
same,Activity,[5],Non-Toxic
same,IC50,[6],29 µM
same,bioavailability,[7],0.9%
same,Tmax,[8],15 min
same,Activity,[9],Non-Toxic
same,half-life,[10],48.6 min
same,Cmax,[11],2.14 ng/mL
same,Activity,[14],Non-Toxic
same,Activity,[15],Non-Toxic
same,IC50,Cytochrome P450 2C19,2.2 µM
same,Activity,[16],Non-Toxic
same,half-life at 1 µM,[37],95 min
same,IC50,Cytochrome P450 1A2,4.1 µM
same,Activity,[18],Non-Toxic
same,microsomal CLint at 1 µM,[38],14.6 µL/min/mg
same,Activity,[20],Non-Toxic
same,Activity,[21],Non-Toxic
same,Activity,[22],Non-Toxic
same,Activity,[23],Non-Toxic
same,half-life at 1 µM,[39],56 min
same,microsomal CLint at 1 µM,[40],24.9 µL/min/mg
same,Activity,[27],Toxic
same,microsomal CLint at 1 µM,[41],31.8 µL/min/mg
same,Activity,[28],Non-Toxic
same,IC50,Cytochrome P450 2C9,4.5 µM
same,Activity,[30],Toxic
same,Activity,[31],Non-Toxic
same,Activity,[32],Non-Toxic
